Experimental data: ChEMBL document CHEMBL4699530, “Isolation, Structural Elucidation, and Anti-HIV Activity of Daphnane Diterpenoids from Daphne odora” (J Nat Prod, 2020)

Columns and labels:
[1] = test system: Human immunodeficiency virus; test: Antiviral activity against HIV NL4-3 infected in human MT4 cells assessed as suppression of viral replication by measuring reduction in p24 level measured after 4 days by ELISA method; type: functional, organism-based; conditions: Human immunodeficiency virus 1, NL4-3, MT4, 96 h
[2] = test system: MT4; test: Cytotoxicity against human MT4 cells assessed as reduction in cell viability incubated for 4 days by CellTiter-Glo assay; type: cell-based; conditions: MT4, 96 h

Row | SMILES | EC50 [1] | IC50 [2]
1 | C=C(C)[C@@]12O[C@@]3(/C=C/C=C/C=C/CCC)O[C@@H]1[C@@H]1[C@@H]4O[C@]4(CO)[C@@H](O)[C@]4(O)C(=O)C(C)=C[C@H]4[C@@]1(O3)[C@H](C)[C@H]2OC(=O)/C=C/c1ccc(O)c(OC)c1 | 4.5 nM | > 34 nM
2 | C=C(C)[C@@]12O[C@@]3(c4ccccc4)O[C@@H]1[C@@H]1[C@@H]4O[C@]4(CO)[C@@H](O)[C@]4(O)C(=O)C(C)=C[C@H]4[C@@]1(O3)[C@H](C)[C@H]2OC(=O)/C=C/C=C/C=C/CCC | 2.3 nM | > 34 nM
3 | C=C(C)[C@@]12O[C@@]3(/C=C/C=C/C=C/CCC)O[C@@H]1[C@@H]1[C@@H]4O[C@]4(CO)[C@@H](O)[C@]4(O)C(=O)C(C)=C[C@H]4[C@@]1(O3)[C@H](C)[C@H]2OC(=O)c1ccccc1 | 1.9 nM | > 34 nM
4 | C=C(C)[C@]1(O)C[C@@H](C)[C@@]2(O)[C@@H]([C@H]3O[C@@]4([C@H](O)[C@]3(O)COC(=O)c3ccccc3)[C@@H](OC(=O)/C=C/C=C/C=C/CCC)[C@@H](C)C[C@@H]24)[C@H]1O | > 34 nM | > 34 nM
5 | C=C(C)[C@@]12O[C@@]3(/C=C/C=C/CCCCC)O[C@@H]1[C@@H]1[C@@H]4O[C@]4(CO)[C@@H](O)[C@]4(O)C(=O)C(C)=C[C@H]4[C@@]1(O3)[C@H](C)[C@H]2OC(=O)c1ccccc1 [GNIDILATIDIN] | 1.9 nM | > 34 nM
6 | C=C(C)[C@@]12O[C@@]3(/C=C/C=C/C=C/CCC)O[C@@H]1[C@@H]1[C@@H]4O[C@]4(CO)[C@@H](O)[C@]4(O)C(=O)C(C)=C[C@H]4[C@@]1(O3)[C@H](C)[C@H]2OC(=O)/C=C/c1ccccc1 | 3.7 nM | > 34 nM
7 | C=C(C)[C@@]12O[C@@]3(/C=C/C=C/C=C/CCC)O[C@@H]1[C@@H]1[C@@H]4O[C@]4(CO)[C@@H](O)[C@]4(O)C(=O)C(C)=C[C@H]4[C@@]1(O3)[C@H](C)[C@H]2OC(=O)/C=C/c1ccc(O)cc1 | 1.6 nM | > 34 nM
8 | C=C(C)[C@@]12O[C@@]3(/C=C/C=C/CCCCC)O[C@@H]1[C@@H]1[C@@H]4O[C@]4(CO)[C@@H](O)[C@]4(O)C(=O)C(C)=C[C@H]4[C@@]1(O3)[C@H](C)[C@H]2OC(=O)/C=C/c1ccc(O)c(OC)c1 | 1.5 nM | > 34 nM
9 | C=C(C)[C@@]12O[C@@]3(/C=C/C=C/CCCCC)O[C@@H]1[C@@H]1[C@@H]4O[C@]4(CO)[C@@H](O)[C@]4(O)C(=O)C(C)=C[C@H]4[C@@]1(O3)[C@H](C)[C@H]2OC(=O)/C=C/c1ccccc1 | 2.2 nM | > 34 nM
10 | C=C(C)[C@@]12O[C@@]3(/C=C/C=C/CCCCC)O[C@@H]1[C@@H]1[C@@H]4O[C@]4(CO)[C@@H](O)[C@]4(O)C(=O)C(C)=C[C@H]4[C@@]1(O3)[C@H](C)[C@H]2OC(=O)/C=C/c1ccc(O)cc1 | 7.7 nM | > 34 nM
11 | C=C(C)[C@@]1(O)[C@H](OC(=O)/C=C/C=C/C=C/CCC)[C@@H]2[C@@H]3O[C@]3(CO)[C@@H](O)[C@]3(O)C(=O)C(C)=C[C@H]3[C@@]2(O)[C@H](C)[C@H]1OC(=O)/C=C/c1ccc(O)c(OC)c1 | > 34 nM | > 34 nM
12 | C=C(C)[C@@]1(O)[C@H](OC(=O)/C=C/C=C/CCCCC)[C@@H]2[C@@H]3O[C@]3(CO)[C@@H](O)[C@]3(O)C(=O)C(C)=C[C@H]3[C@@]2(O)[C@H](C)[C@H]1OC(=O)/C=C/c1ccccc1 | > 34 nM | > 34 nM
